Data published in ChEMBL document CHEMBL1153685, “Design, synthesis, and evaluation of orally active fibrinogen inhibitors” (Bioorg Med Chem Lett, 1997).
Each block holds one compound with its values, some of them ahead of it.

Experiments:
Format in all cases: functional
[1] = organism: Homo sapiens; assay: The compound was tested in vitro for its anti-platelet activity against human platelets in presence of ADP
[2] = organism: Rattus norvegicus; assay: The compound was tested for its stability in intestinal juice of rats after 0 h
[3] = organism: Rattus norvegicus; assay: The compound was tested for its stability in intestinal juice of rats after 2 h
[4] = organism: Rattus norvegicus; assay: The compound was tested for its stability in intestinal juice of rats after 5 h
[5] = organism: Rattus norvegicus; assay: The compound was tested for its stability in intestinal juice of rats after 7 h
[6] = system: Canis familiaris; assay: Tested ex vivo for its inhibitory activity at 1 hr against dogs after oral administration of 3.2 mg/Kg dose to evaluate bioavailability; details: Canis lupus familiaris
[7] = system: Canis familiaris; assay: Tested ex vivo for its inhibitory activity at 1 hr against dogs after oral administration of 32 mg/Kg dose to evaluate bioavailability; details: Canis lupus familiaris
[8] = system: Canis familiaris; assay: Tested ex vivo for its inhibitory activity at 2 hr against dogs after oral administration of 3.2 mg/Kg dose to evaluate bioavailability; details: Canis lupus familiaris
[9] = system: Canis familiaris; assay: Tested ex vivo for its inhibitory activity at 2 h against dogs after oral administration of 32 mg/Kg dose to evaluate bioavailability; details: Canis lupus familiaris
[10] = system: Canis familiaris; assay: Tested ex vivo for its inhibitory activity at 3 hr against dogs after oral administration of 32 mg/Kg dose to evaluate bioavailability; details: Canis lupus familiaris
[11] = organism: Canis familiaris; assay: The compound was tested in vitro for its anti-platelet activity against dog platelets in presence of ADP; details: Canis lupus familiaris
[12] = system: Cavia porcellus; assay: Tested ex vivo for its inhibitory activity at 3 hr against guinea pig after oral administration of 1 mg/Kg dose to evaluate bioavailability
[13] = system: Cavia porcellus; assay: Tested ex vivo for its inhibitory activity at 3 hr against guinea pig after oral administration of 3.2 mg/Kg dose to evaluate bioavailability
[14] = system: Cavia porcellus; assay: Tested ex vivo for its inhibitory activity at 6 hr against guinea pig after oral administration of 3.2 mg/Kg dose to evaluate bioavailability
[15] = system: Cavia porcellus; assay: Tested ex vivo for its inhibitory activity at 1 hr against guinea pig after oral administration of 0.32 mg/Kg dose to evaluate bioavailability
[16] = system: Cavia porcellus; assay: Tested ex vivo for its inhibitory activity at 1 hr against guinea pig after oral administration of 1 mg/Kg dose to evaluate bioavailability
[17] = system: Cavia porcellus; assay: Tested ex vivo for its inhibitory activity at 1 hr against guinea pig after oral administration of 3.2 mg/Kg dose to evaluate bioavailability
[18] = system: Rattus norvegicus; assay: Tested ex vivo for its inhibitory activity at 0.5 hr against rats after oral administration of 10 mg/Kg dose to evaluate bioavailability
[19] = system: Rattus norvegicus; assay: Tested ex vivo for its inhibitory activity at 0.5 hr against rats after oral administration of 20 mg/Kg dose to evaluate bioavailability
[20] = system: Rattus norvegicus; assay: Tested ex vivo for its inhibitory activity at 1 hr against rats after oral administration of 10 mg/Kg dose to evaluate bioavailability
[21] = system: Rattus norvegicus; assay: Tested ex vivo for its inhibitory activity at 1 hr against rats after oral administration of 20 mg/Kg dose to evaluate bioavailability
[22] = system: Rattus norvegicus; assay: Tested ex vivo for its inhibitory activity at 2 hr against rats after oral administration of 10 mg/Kg dose to evaluate bioavailability
[23] = organism: Rattus norvegicus; assay: Tested for its stability in intestinal juice of rats after 0 h
[24] = organism: Rattus norvegicus; assay: Tested for its stability in intestinal juice of rats after 2 h
[25] = organism: Rattus norvegicus; assay: Tested for its stability in intestinal juice of rats after 5 h
[26] = system: Canis familiaris; assay: Tested ex vivo for its inhibitory activity at 3 hr against dogs after oral administration of 3.2 mg/Kg dose to evaluate bioavailability; details: Canis lupus familiaris
[27] = system: Rattus norvegicus; assay: Tested ex vivo for its inhibitory activity at 2 hr against rats after oral administration of 20 mg/Kg dose to evaluate bioavailability
[28] = system: Canis familiaris; assay: Tested ex vivo for its inhibitory activity at 3 hr against dogs after oral administration of 10 mg/Kg dose to evaluate bioavailability; details: Canis lupus familiaris
[29] = system: Canis familiaris; assay: Tested ex vivo for its inhibitory activity at 6 hr against dogs after oral administration of 10 mg/Kg dose to evaluate bioavailability; details: Canis lupus familiaris
[30] = system: Canis familiaris; assay: Tested ex vivo for its inhibitory activity at 6 hr against dogs after oral administration of 3.2 mg/Kg dose to evaluate bioavailability; details: Canis lupus familiaris
[31] = system: Canis familiaris; assay: Tested ex vivo for its inhibitory activity at 1 hr against dogs after oral administration of 10 mg/Kg dose to evaluate bioavailability; details: Canis lupus familiaris
[32] = system: Rattus norvegicus; assay: Tested ex vivo for its inhibitory activity at 0.5 hr against rats after oral administration of 3.2 mg/Kg dose to evaluate bioavailability
[33] = system: Rattus norvegicus; assay: Tested ex vivo for its inhibitory activity at 1 h against rats after oral administration of 3.2 mg/Kg dose to evaluate bioavailability
[34] = system: Rattus norvegicus; assay: Tested ex vivo for its inhibitory activity at 2 h against rats after oral administration of 3.2 mg/Kg dose to evaluate bioavailability
[35] = The ratio of anti-platelet activity against dog platelets to that of human platelets was determined
[36] = system: Canis familiaris; assay: Tested ex vivo for its inhibitory activity at 3 hr against dogs after oral administration of 1 mg/Kg dose to evaluate bioavailability; details: Canis lupus familiaris
[37] = system: Canis familiaris; assay: Tested ex vivo for its inhibitory activity at 8 hr against dogs after oral administration of 10 mg/Kg dose to evaluate bioavailability; details: Canis lupus familiaris
[38] = system: Canis familiaris; assay: Tested ex vivo for its inhibitory activity at 8 hr against dogs after oral administration of 3.2 mg/Kg dose to evaluate bioavailability; details: Canis lupus familiaris
[39] = system: Canis familiaris; assay: Tested ex vivo for its inhibitory activity at 1 hr against dogs after oral administration of 1 mg/Kg dose to evaluate bioavailability; details: Canis lupus familiaris
[40] = system: Cavia porcellus; assay: Tested ex vivo for its inhibitory activity at 2 hr against guinea pig after oral administration of 0.32 mg/Kg dose to evaluate bioavailability
[41] = system: Cavia porcellus; assay: Tested ex vivo for its inhibitory activity at 2 hr against guinea pig after oral administration of 1 mg/Kg dose to evaluate bioavailability
[42] = system: Cavia porcellus; assay: Tested ex vivo for its inhibitory activity at 1 hr against guinea pig after oral administration of 0.1 mg/Kg dose to evaluate bioavailability

SMILES: CCN(CC)C(=O)[C@@H](NC(=O)[C@H](CC(=O)O)NC(=O)CCCOc1ccc(C(=N)N)cc1)C(C)C
IC50 [1]: 250 nM

SMILES: CC(C)[C@H](NC(=O)[C@H](CC(=O)O)NC(=O)CCCOc1ccc(C(=N)N)cc1)C(=O)NC1CCCCC1
IC50 [1]: 210 nM

SMILES: CCOc1ccc(CCNC(=O)[C@H](CC(=O)O)NC(=O)CCCOc2ccc(C(=N)N)cc2)cc1
IC50 [1]: 340 nM

SMILES: CC(C)Oc1ccc(CCNC(=O)[C@H](CC(=O)O)NC(=O)CCCOc2ccc(C(=N)N)cc2)cc1
IC50 [1]: 370 nM

SMILES: CC(C)C(C)NC(=O)[C@H](CC(=O)O)NC(=O)CCCOc1ccc(C(=N)N)cc1 (stereo not given in full)
IC50 [1]: 1400 nM

SMILES: CC(C)[C@H](NC(=O)[C@H](CC(=O)O)NC(=O)CCCOc1ccc(C(=N)N)cc1)C(=O)N1CCS(=O)(=O)CC1
inhibition in vivo at 3.2 mg/kg [6]: 85%
inhibition in vivo at 1 mg/kg [36]: 11%
inhibition in vivo at 10 mg/kg [28]: 80%
inhibition in vivo at 10 mg/kg [29]: 65%
inhibition in vivo at 3.2 mg/kg [30]: 46%
inhibition in vivo at 10 mg/kg [37]: 45%
inhibition in vivo at 3.2 mg/kg [38]: 0%
inhibition in vivo at 1 mg/kg [39]: 40%
IC50 [11]: 110 nM
inhibition in vivo at 0.32 mg/kg [40]: 50%
inhibition in vivo at 1 mg/kg [41]: 59%
inhibition in vivo at 1 mg/kg [12]: 21%
inhibition in vivo at 0.1 mg/kg [42]: 49%
inhibition in vivo at 0.32 mg/kg [15]: 69%
inhibition in vivo at 1 mg/kg [16]: 100%
IC50 [1]: 30 nM
inhibition in vivo at 3.2 mg/kg [32]: 76%
inhibition in vivo at 3.2 mg/kg [33]: 97%
inhibition in vivo at 3.2 mg/kg [34]: 44%
Ratio [35]: 3.7
inhibition in vivo at 3.2 mg/kg [26]: 65%

The remaining compounds from weak to strong by IC50 [1], led by results:

IC50 [1]: 1200 nM
SMILES: CC(C)CNC(=O)[C@H](CC(=O)O)NC(=O)CCCOc1ccc(C(=N)N)cc1
Remains [2]: 100%
Remains [3]: 80.4%
Remains [4]: 83.6%
Remains [5]: 86.2%

IC50 [1]: 670 nM
SMILES: CC(C)[C@H](NC(=O)[C@H](CC(=O)O)NC(=O)CCCOc1ccc(C(=N)N)cc1)C(N)=O
Remains [2]: 100%
Remains [3]: 105.6%
Remains [4]: 107.3%

IC50 [1]: 540 nM
SMILES: COc1ccc(CCNC(=O)[C@H](CC(=O)O)NC(=O)CCCOc2ccc(C(=N)N)cc2)cc1OC

IC50 [1]: 440 nM
SMILES: COc1ccc(CCNC(=O)[C@H](CC(=O)O)NC(=O)CCCOc2ccc(C(=N)N)cc2)cc1
Remains [2]: 100%
Remains [3]: 100.5%
Remains [4]: 105.7%

IC50 [1]: 180 nM
SMILES: CC(C)[C@H](NC(=O)[C@H](CC(=O)O)NC(=O)CCCOc1ccc(C(=N)N)cc1)C(=O)N1CCN(C)CC1

IC50 [11]: 380 nM
IC50 [1]: 100 nM
SMILES: CC(C)[C@H](NC(=O)[C@H](CC(=O)O)NC(=O)CCCOc1ccc(C(=N)N)cc1)C(=O)O
inhibition in vivo at 3.2 mg/kg [6]: 19%
inhibition in vivo at 32 mg/kg [7]: 58%
inhibition in vivo at 3.2 mg/kg [8]: 30%
inhibition in vivo at 32 mg/kg [9]: 29%
inhibition in vivo at 32 mg/kg [10]: 18%
inhibition in vivo at 1 mg/kg [12]: 34%
inhibition in vivo at 3.2 mg/kg [13]: 64%
inhibition in vivo at 3.2 mg/kg [14]: 19%
inhibition in vivo at 0.32 mg/kg [15]: 70%
inhibition in vivo at 1 mg/kg [16]: 99%
inhibition in vivo at 3.2 mg/kg [17]: 100%
inhibition in vivo at 10 mg/kg [18]: 24%
inhibition in vivo at 20 mg/kg [19]: 45%
inhibition in vivo at 10 mg/kg [20]: 18%
inhibition in vivo at 20 mg/kg [21]: 33%
inhibition in vivo at 10 mg/kg [22]: 4%
Remains [23]: 100%
Remains [24]: 63.8%
Remains [25]: 45.1%
Remains [2]: 100%
Remains [3]: 61.3%
Remains [4]: 25.6%
Remains [5]: 19.2%
inhibition in vivo at 3.2 mg/kg [26]: 10%
inhibition in vivo at 20 mg/kg [27]: 20%

IC50 [11]: 140 nM
IC50 [1]: 79 nM
SMILES: CC(C)[C@H](NC(=O)[C@H](CC(=O)O)NC(=O)CCCOc1ccc(C(=N)N)cc1)C(=O)N1CCOCC1
inhibition in vivo at 3.2 mg/kg [6]: 53%
inhibition in vivo at 10 mg/kg [28]: 75%
inhibition in vivo at 10 mg/kg [29]: 59%
inhibition in vivo at 3.2 mg/kg [30]: 20%
inhibition in vivo at 10 mg/kg [31]: 96%
inhibition in vivo at 3.2 mg/kg [32]: 95%
inhibition in vivo at 3.2 mg/kg [33]: 97%
inhibition in vivo at 3.2 mg/kg [34]: 95%
Ratio [35]: 1.8
inhibition in vivo at 3.2 mg/kg [26]: 45%
